We go through one molecule from BindingDB's records for doi:10.1021/acs.jmedchem.6b00799 (Glaxosmithkline R&D, 2016).

The target of the test is DNA-dependent protein kinase catalytic subunit (Homo sapiens, UniProt P78527). The test is described as follows: Inhibition of DNA-PK (unknown origin).
Sequence of DNA-dependent protein kinase catalytic subunit (P78527 whole entry): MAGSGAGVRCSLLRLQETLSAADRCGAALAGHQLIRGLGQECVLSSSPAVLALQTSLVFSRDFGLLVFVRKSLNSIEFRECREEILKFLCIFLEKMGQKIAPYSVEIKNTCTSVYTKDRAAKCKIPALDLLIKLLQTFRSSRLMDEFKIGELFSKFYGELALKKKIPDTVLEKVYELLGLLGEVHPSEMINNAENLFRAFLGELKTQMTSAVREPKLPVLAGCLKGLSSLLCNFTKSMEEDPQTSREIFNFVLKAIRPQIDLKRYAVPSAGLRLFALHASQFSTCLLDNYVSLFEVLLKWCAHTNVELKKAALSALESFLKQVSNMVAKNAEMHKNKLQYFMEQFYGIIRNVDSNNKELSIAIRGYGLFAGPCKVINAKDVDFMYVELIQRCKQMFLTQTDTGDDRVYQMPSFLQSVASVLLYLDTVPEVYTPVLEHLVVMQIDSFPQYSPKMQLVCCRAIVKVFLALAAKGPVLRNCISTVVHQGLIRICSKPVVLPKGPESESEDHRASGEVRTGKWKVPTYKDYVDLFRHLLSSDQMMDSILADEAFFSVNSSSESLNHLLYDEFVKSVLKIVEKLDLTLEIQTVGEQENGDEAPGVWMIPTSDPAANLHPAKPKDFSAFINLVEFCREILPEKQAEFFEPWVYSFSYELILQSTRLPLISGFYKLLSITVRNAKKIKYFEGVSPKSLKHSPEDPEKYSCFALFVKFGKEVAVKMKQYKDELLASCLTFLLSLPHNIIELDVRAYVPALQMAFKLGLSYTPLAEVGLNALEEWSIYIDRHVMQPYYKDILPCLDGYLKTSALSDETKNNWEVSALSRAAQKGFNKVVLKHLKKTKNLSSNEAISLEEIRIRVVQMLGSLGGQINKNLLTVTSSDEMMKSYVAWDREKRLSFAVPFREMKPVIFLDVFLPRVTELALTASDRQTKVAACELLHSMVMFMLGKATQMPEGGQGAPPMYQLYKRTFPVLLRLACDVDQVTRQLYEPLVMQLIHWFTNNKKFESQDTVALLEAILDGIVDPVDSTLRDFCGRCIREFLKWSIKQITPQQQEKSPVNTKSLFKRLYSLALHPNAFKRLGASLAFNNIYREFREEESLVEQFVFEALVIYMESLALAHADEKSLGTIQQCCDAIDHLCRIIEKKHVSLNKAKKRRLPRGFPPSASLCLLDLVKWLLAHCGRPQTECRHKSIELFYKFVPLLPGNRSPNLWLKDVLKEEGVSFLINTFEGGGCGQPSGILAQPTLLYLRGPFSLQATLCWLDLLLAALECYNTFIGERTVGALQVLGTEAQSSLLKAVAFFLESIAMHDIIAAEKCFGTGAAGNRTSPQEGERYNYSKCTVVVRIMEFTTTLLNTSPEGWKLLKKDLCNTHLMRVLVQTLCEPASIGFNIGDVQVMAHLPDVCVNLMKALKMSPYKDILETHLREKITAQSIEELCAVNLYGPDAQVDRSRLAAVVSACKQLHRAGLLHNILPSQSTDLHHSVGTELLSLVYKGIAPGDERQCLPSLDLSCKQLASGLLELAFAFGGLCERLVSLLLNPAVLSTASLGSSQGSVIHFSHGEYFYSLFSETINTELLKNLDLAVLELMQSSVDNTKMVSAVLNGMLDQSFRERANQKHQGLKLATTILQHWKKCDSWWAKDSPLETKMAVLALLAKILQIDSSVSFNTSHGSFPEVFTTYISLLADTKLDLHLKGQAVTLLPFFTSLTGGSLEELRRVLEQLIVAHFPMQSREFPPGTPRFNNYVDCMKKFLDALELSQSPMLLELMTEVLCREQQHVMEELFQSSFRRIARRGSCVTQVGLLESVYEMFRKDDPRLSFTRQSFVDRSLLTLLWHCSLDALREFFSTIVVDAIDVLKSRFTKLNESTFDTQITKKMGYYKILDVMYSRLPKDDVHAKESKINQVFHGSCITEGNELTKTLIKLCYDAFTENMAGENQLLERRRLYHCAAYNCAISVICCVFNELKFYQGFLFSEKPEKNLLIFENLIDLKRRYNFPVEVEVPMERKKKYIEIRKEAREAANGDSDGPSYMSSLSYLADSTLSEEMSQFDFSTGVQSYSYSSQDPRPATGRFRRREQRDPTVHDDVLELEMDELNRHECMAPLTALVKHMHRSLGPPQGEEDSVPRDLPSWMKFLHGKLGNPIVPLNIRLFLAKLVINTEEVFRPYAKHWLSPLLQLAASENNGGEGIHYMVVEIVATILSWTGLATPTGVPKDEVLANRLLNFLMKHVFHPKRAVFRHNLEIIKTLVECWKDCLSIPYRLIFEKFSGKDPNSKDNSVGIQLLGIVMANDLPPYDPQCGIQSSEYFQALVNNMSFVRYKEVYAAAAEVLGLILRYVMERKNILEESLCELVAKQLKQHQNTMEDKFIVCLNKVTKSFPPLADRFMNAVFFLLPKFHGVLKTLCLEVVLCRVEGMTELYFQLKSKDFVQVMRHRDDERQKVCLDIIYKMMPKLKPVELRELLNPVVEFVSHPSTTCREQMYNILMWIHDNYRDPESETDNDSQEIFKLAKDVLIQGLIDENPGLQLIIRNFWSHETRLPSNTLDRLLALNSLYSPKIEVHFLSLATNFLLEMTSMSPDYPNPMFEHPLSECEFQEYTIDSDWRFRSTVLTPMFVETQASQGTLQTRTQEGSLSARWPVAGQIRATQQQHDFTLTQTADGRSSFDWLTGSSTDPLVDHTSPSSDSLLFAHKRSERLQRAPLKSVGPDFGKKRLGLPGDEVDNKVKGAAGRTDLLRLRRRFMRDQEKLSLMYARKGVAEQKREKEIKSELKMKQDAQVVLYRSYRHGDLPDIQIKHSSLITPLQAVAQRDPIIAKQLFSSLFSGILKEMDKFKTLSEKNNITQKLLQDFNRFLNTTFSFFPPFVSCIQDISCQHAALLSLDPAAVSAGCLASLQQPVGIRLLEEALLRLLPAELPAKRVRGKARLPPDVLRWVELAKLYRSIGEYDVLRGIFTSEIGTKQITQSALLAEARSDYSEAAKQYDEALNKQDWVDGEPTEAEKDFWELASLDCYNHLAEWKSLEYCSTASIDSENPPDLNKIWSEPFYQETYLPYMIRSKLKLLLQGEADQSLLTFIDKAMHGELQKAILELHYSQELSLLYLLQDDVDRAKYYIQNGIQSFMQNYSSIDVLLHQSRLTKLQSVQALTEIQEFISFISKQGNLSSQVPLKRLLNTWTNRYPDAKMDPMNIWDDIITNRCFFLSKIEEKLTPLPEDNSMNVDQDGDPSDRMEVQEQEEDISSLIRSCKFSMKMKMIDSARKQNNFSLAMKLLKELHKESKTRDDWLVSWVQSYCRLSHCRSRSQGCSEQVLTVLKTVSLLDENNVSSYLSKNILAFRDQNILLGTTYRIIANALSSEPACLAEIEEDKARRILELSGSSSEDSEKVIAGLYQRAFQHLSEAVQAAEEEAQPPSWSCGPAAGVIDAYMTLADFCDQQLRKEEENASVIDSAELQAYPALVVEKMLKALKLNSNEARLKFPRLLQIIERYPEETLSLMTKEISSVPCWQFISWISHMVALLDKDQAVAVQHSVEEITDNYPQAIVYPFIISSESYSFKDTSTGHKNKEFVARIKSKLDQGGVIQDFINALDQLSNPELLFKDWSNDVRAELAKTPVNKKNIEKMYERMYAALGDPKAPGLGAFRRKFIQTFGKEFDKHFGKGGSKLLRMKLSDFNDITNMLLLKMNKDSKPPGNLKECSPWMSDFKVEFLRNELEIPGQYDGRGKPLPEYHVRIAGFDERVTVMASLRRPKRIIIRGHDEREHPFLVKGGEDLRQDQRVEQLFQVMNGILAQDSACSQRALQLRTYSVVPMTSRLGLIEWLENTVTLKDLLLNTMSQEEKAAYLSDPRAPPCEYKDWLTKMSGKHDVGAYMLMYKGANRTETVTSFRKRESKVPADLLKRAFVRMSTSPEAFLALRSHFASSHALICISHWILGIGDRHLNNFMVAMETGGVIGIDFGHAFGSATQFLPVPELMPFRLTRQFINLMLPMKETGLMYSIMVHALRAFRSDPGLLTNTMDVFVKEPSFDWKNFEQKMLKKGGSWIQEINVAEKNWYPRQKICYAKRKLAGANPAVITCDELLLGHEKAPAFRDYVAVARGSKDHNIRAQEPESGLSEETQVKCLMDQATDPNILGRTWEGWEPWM

As a reminder, the IC50 is the concentration needed to halve the response being measured. High values mean lower potency, low ones higher potency. `COc1ncc(-c2cc3c(c(NC(=O)CN4CCOCC4)c2)COC3)cc1NS(C)(=O)=O` gave an IC50 of 2510 nM.
